Results published in the supplement of paper PMC11451515.

Key:
Conditions in all cases: 48 h
[1] = test system: NOMO1; assay: cell viability relative to DMSO control; higher = less cytotoxic
Method in brief: (§1)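 NOMO1, SEM and P12-Ichikawa leukemia cells spent at least four passages adapting to each medium before use. They were seeded at 500 cells/well (NOMO1, SEM) or 1000 cells/well (P12-Ichikawa) in 5 μl in 1536-well plates and pin-dosed with library compounds in DMSO at 11 threefold steps from 47 μM down to 0.79 nM. After 48 h at 37°C, CellTiter-Glo One luminescence was read. Viability is reported as a percentage of the DMSO wells on each plate, with cell-free wells as background.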

[2] = test system: P12-Ichikawa; assay: as above
Method in brief: as §1

[3] = test system: SEM cells; assay: as above
Method in brief: as §1

[4] = test system: NOMO1; assay: AUC of viability dose-response curve (% viability x log10 dose units); higher = less sensitive
Method in brief: (§2)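 Library compounds in DMSO were applied for 48 h at 37°C at 11 threefold doses (47 μM to 0.79 nM) to medium-adapted leukemia cells in 1536-well plates holding 500 or 1000 cells/well. Luminescence from CellTiter-Glo One was normalised plate by plate against DMSO and cell-free wells. Area under the curve came from trapezoidal integration of a log-logistic fit, after scaling curves that rose above full viability and discarding those that failed quality control. The fit had four parameters and used log10 doses.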

[5] = test system: P12-Ichikawa; assay: as above
Method in brief: as §2

[6] = test system: SEM cells; assay: as above
Method in brief: as §2

C[C@]12CC[C@H]3[C@@H](CCC4=CC(=O)CC[C@@H]43)[C@@H]1CC[C@@H]2OC(=O)CCc1ccccc1
cell viability [%]
Conditions | [1] | [2] | [3]
HPLM + 10% dialyzed FBS, 0.000781 µM | – | 116 | 83.2
HPLM + 10% dialyzed FBS, 0.00234 µM | – | 115 | 22.9
HPLM + 10% dialyzed FBS, 0.00702 µM | – | 117 | 101
HPLM + 10% dialyzed FBS, 0.0211 µM | – | 115 | 93.8
HPLM + 10% dialyzed FBS, 0.0632 µM | – | 113 | 100
HPLM + 10% dialyzed FBS, 0.19 µM | – | 121 | 98.5
HPLM + 10% dialyzed FBS, 0.569 µM | – | 120 | 94.3
HPLM + 10% dialyzed FBS, 1.71 µM | – | 120 | 99.6
HPLM + 10% dialyzed FBS, 5.12 µM | – | 121 | 85.9
HPLM + 10% dialyzed FBS, 15.4 µM | – | 119 | 91.4
HPLM + 10% dialyzed FBS, 46.1 µM | – | 117 | 93.6
RPMI 5 mM glucose + 10% FBS, 0.000781 µM | 126 | – | 116
RPMI 5 mM glucose + 10% FBS, 0.00234 µM | 115 | – | 24.5
RPMI 5 mM glucose + 10% FBS, 0.00702 µM | 119 | – | 123
RPMI 5 mM glucose + 10% FBS, 0.0211 µM | 130 | – | 111
RPMI 5 mM glucose + 10% FBS, 0.0632 µM | 114 | – | 116
RPMI 5 mM glucose + 10% FBS, 0.19 µM | 113 | – | 115
RPMI 5 mM glucose + 10% FBS, 0.569 µM | 112 | – | 108
RPMI 5 mM glucose + 10% FBS, 1.71 µM | 133 | – | 122
RPMI 5 mM glucose + 10% FBS, 5.12 µM | 115 | – | 110
RPMI 5 mM glucose + 10% FBS, 15.4 µM | 128 | – | 120
RPMI 5 mM glucose + 10% FBS, 46.1 µM | 78 | – | 114
RPMI 5 mM glucose + 10% dialyzed FBS, 0.000781 µM | 120 | 104 | 99.4
RPMI 5 mM glucose + 10% dialyzed FBS, 0.00234 µM | 127 | 113 | 26.5
RPMI 5 mM glucose + 10% dialyzed FBS, 0.00702 µM | 115 | 112 | 107
RPMI 5 mM glucose + 10% dialyzed FBS, 0.0211 µM | 124 | 106 | 122
RPMI 5 mM glucose + 10% dialyzed FBS, 0.0632 µM | 141 | 115 | 112
RPMI 5 mM glucose + 10% dialyzed FBS, 0.19 µM | 135 | 119 | 109
RPMI 5 mM glucose + 10% dialyzed FBS, 0.569 µM | 144 | 113 | 104
RPMI 5 mM glucose + 10% dialyzed FBS, 1.71 µM | 133 | 123 | 123
RPMI 5 mM glucose + 10% dialyzed FBS, 5.12 µM | 128 | 112 | 100
RPMI 5 mM glucose + 10% dialyzed FBS, 15.4 µM | 137 | 114 | 125
RPMI 5 mM glucose + 10% dialyzed FBS, 46.1 µM | 68.7 | 104 | 113

AUC of viability dose-response curve
Conditions | [4] | [5] | [6]
HPLM + 10% dialyzed FBS | 463 | 469 | 415
RPMI 5 mM glucose + 10% FBS | 469 | 474 | 416
RPMI 5 mM glucose + 10% dialyzed FBS | 466 | 470 | 443

Cc1cccc(Nc2ccncc2[S+](=O)([O-])NC(=O)NC(C)C)c1
cell viability [%]
Conditions | [1] | [2] | [3]
HPLM + 10% dialyzed FBS, 0.000781 µM | 105 | 102 | 80.2
HPLM + 10% dialyzed FBS, 0.00234 µM | 103 | 97.6 | 82.6
HPLM + 10% dialyzed FBS, 0.00702 µM | 100 | 100 | 88
HPLM + 10% dialyzed FBS, 0.0211 µM | 85.6 | 93.8 | 92.4
HPLM + 10% dialyzed FBS, 0.0632 µM | 112 | 101 | 85.7
HPLM + 10% dialyzed FBS, 0.19 µM | 105 | 96.7 | 95.1
HPLM + 10% dialyzed FBS, 0.569 µM | 103 | 93 | 98.6
HPLM + 10% dialyzed FBS, 1.71 µM | 87.3 | 90 | 85.6
HPLM + 10% dialyzed FBS, 5.12 µM | 80.9 | 91.3 | 75.5
HPLM + 10% dialyzed FBS, 15.4 µM | 89.3 | 85.8 | 84.4
HPLM + 10% dialyzed FBS, 46.1 µM | 56 | 83.1 | 72.3
RPMI 5 mM glucose + 10% FBS, 0.000781 µM | 95.6 | 94.9 | 103
RPMI 5 mM glucose + 10% FBS, 0.00234 µM | 89.6 | 95.5 | 94.6
RPMI 5 mM glucose + 10% FBS, 0.00702 µM | 96.4 | 95.4 | 83.8
RPMI 5 mM glucose + 10% FBS, 0.0211 µM | 88.9 | 94.2 | 102
RPMI 5 mM glucose + 10% FBS, 0.0632 µM | 83 | 104 | 96.2
RPMI 5 mM glucose + 10% FBS, 0.19 µM | 84.8 | 104 | 97.9
RPMI 5 mM glucose + 10% FBS, 0.569 µM | 89.4 | 98.2 | 111
RPMI 5 mM glucose + 10% FBS, 1.71 µM | 89.1 | 94.1 | 87.7
RPMI 5 mM glucose + 10% FBS, 5.12 µM | 79.2 | 96.8 | 90.4
RPMI 5 mM glucose + 10% FBS, 15.4 µM | 82.3 | 86.4 | 95.3
RPMI 5 mM glucose + 10% FBS, 46.1 µM | 72.4 | 86.6 | 88.5
RPMI 5 mM glucose + 10% dialyzed FBS, 0.000781 µM | 89.1 | 86.1 | 89.7
RPMI 5 mM glucose + 10% dialyzed FBS, 0.00234 µM | 91.4 | 89.3 | 104
RPMI 5 mM glucose + 10% dialyzed FBS, 0.00702 µM | 81.1 | 93.1 | 110
RPMI 5 mM glucose + 10% dialyzed FBS, 0.0211 µM | 94.1 | 90 | 94.4
RPMI 5 mM glucose + 10% dialyzed FBS, 0.0632 µM | 93.6 | 91.9 | 106
RPMI 5 mM glucose + 10% dialyzed FBS, 0.19 µM | 92.6 | 97.2 | 111
RPMI 5 mM glucose + 10% dialyzed FBS, 0.569 µM | 85.5 | 90 | 101
RPMI 5 mM glucose + 10% dialyzed FBS, 1.71 µM | 89.3 | 87.3 | 95.7
RPMI 5 mM glucose + 10% dialyzed FBS, 5.12 µM | 83.5 | 88 | 83.8
RPMI 5 mM glucose + 10% dialyzed FBS, 15.4 µM | 81 | 85.5 | 101
RPMI 5 mM glucose + 10% dialyzed FBS, 46.1 µM | 65.8 | 76.1 | 84.5

AUC of viability dose-response curve
Conditions | [4] | [5] | [6]
HPLM + 10% dialyzed FBS | 442 | 450 | 409
RPMI 5 mM glucose + 10% FBS | 412 | 457 | 457
RPMI 5 mM glucose + 10% dialyzed FBS | 415 | 425 | 459
